Source: paper PMC6627868 (Marine Drugs, 2019)

Experiments:
[1] = simulated gastric fluid, pH 1.8
[2] = simulated intestinal fluid, pH 6.5
[3] = pH 6.5

CC[C@H](C)[C@@H]1NC(=O)[C@@H]2CCCN2C(=O)[C@H](CO)NC(=O)[C@H](CCSC)NC(=O)[C@H](C)NC(=O)[C@H](CO)NC(=O)[C@@H]2CSSC[C@H](NC(=O)CN)C(=O)N[C@@H](CSSC[C@@H](C(N)=O)NC1=O)C(=O)N[C@@H](CO)C(=O)N[C@@H](Cc1cnc[nH]1)C(=O)N1CCC[C@H]1C(=O)N[C@@H](C(C)C)C(=O)N2 [TxID, α-Conotoxin TxID]
remaining at 48 h [1]: 65.2 ± 2% | remaining at 0.5 h [2]: 36.3 ± 2% | remaining amount in SIF after 2 h [3]: 5.8 ± 2.0%
